35 molecules from ChEMBL document CHEMBL5113472, “Structure-activity relationship studies of [1,2,5]oxadiazolo[3,4-b]pyrazine-containing polymyxin-selective resistance-modifying agents” (Bioorg Med Chem Lett, 2022) can be followed below.

Series [1] relates to Escherichia coli. Briefly: Potentiation of colistin-induced antibacterial activity against Escherichia coli AR0493 harboring mcr-1 plasmid assessed as minimum resensitizing concentration. The format is functional.
Series [2] deals with Escherichia coli. Briefly: Antibacterial activity against Escherichia coli AR0493 harboring mcr-1 plasmid assessed as inhibition of bacterial growth. The class given is functional.
Series [3] can be described thus: Cytotoxicity against human HeLa cells assessed as inhibition of cell growth by cell viability assay. The class given is toxicity, cell-based.
A short description of series [4]: Selectivity index, ratio of GI50 for cytotoxicity against human HeLa cells to MRC for Potentiation of colistin-induced antibacterial activity against Escherichia coli AR0493 harboring mcr-1 plasmid. The class given is toxicity, cell-based. As to conditions: read-out: Selectivity Index.
The test system of series [5] is Escherichia coli. As to the kind of experiment: Antibacterial activity against Escherichia coli AR0538 harboring mcr-2 plasmid assessed as inhibition of bacterial growth. The class given is functional, organism-based.
In series [6] the test system is Salmonella typhimurium. As to the kind of experiment: Antibacterial activity against Salmonella Typhimurium AR0539 harboring mcr-3 plasmid assessed as inhibition of bacterial growth. To be noted: Salmonella enterica subsp. enterica serovar Typhimurium. The class given is functional, organism-based.
Series [7] concerns Salmonella typhimurium. Briefly: Antibacterial activity against Salmonella Typhimurium AR0635 harboring mcr-4 plasmid assessed as inhibition of bacterial growth. The class given is functional, organism-based. As to conditions: Salmonella enterica subsp. enterica serovar Typhimurium.
Series [8] concerns Klebsiella pneumoniae. As to the kind of experiment: Antibacterial activity against Klebsiella pneumoniae AR0497 harboring mcr-1 plasmid assessed as inhibition of bacterial growth. The format is functional, organism-based.
Series [9] concerns Acinetobacter baumannii. As to the kind of experiment: Antibacterial activity against Acinetobacter baumannii AR0310 assessed as inhibition of bacterial growth. The class given is functional, organism-based.
Series [10] has as its system Pseudomonas aeruginosa. As to the kind of experiment: Antibacterial activity against Pseudomonas aeruginosa AR0239 assessed as inhibition of bacterial growth. The format is functional, organism-based.
Series [11] concerns Pseudomonas aeruginosa. Briefly: Antibacterial activity against Pseudomonas aeruginosa AR0257 assessed as inhibition of bacterial growth. The class given is functional, organism-based.
In series [12] the test system is Escherichia coli. As to the kind of experiment: Potentiation of colistin-induced antibacterial activity against Escherichia coli AR0493 harboring mcr-1 plasmid assessed as colistin MIC at 1 ug/ml. The format is functional. As to conditions: dose 1 µg/ml.
Series [13] has as its system Escherichia coli. As to the kind of experiment: Potentiation of colistin-induced antibacterial activity against Escherichia coli AR0538 harboring mcr-2 plasmid assessed as colistin MIC at 1 ug/ml. The class given is functional. As to conditions: dose 1 µg/ml.
Series [14] relates to Salmonella typhimurium. Briefly: Potentiation of colistin-induced antibacterial activity against Salmonella Typhimurium AR0539 harboring mcr-3 plasmid assessed as colistin MIC at 1 ug/ml. The class given is functional, Salmonella enterica subsp. enterica serovar Typhimurium. To be noted: Salmonella enterica, dose 1 µg/ml.
The subject of series [15] is Salmonella typhimurium. Briefly: Potentiation of colistin-induced antibacterial activity against Salmonella Typhimurium AR0635 harboring mcr-4 plasmid assessed as colistin MIC at 1 ug/ml. The class given is functional, Salmonella enterica subsp. enterica serovar Typhimurium. As to conditions: Salmonella enterica, dose 1 µg/ml.
In series [16] the test system is Klebsiella pneumoniae. Briefly: Potentiation of colistin-induced antibacterial activity against Klebsiella pneumoniae AR0497 harboring mcr-1 plasmid assessed as colistin MIC at 1 ug/ml. As to conditions: dose 1 µg/ml. The class given is functional.
Series [17] has as its system Acinetobacter baumannii. Briefly: Potentiation of colistin-induced antibacterial activity against Acinetobacter baumannii AR0310 assessed as colistin MIC at 1 ug/ml. As to conditions: dose 1 µg/ml. The format is functional.
The subject of series [18] is Pseudomonas aeruginosa. Briefly: Potentiation of colistin-induced antibacterial activity against Pseudomonas aeruginosa AR0239 assessed as colistin MIC at 1 ug/ml. To be noted: dose 1 µg/ml. The format is functional.
Series [19] concerns Pseudomonas aeruginosa. Briefly: Potentiation of colistin-induced antibacterial activity against Pseudomonas aeruginosa AR0257 assessed as colistin MIC at 1 ug/ml. The format is functional. To be noted: dose 1 µg/ml.

Values after ≈ are worked out from the molar mass of the structure shown.

As for `Oc1nc2nonc2nc1Nc1ccc(F)cc1`, in [1], the MRC was 32 µg/mL.

For `O=c1[nH]c2nonc2nc1Nc1cccc(Cl)c1`, the MRC in series [1] turned out to be 16 µg/mL.

For the molecule `Cc1ccc(Nc2nc3nonc3nc2O)cc1`, the MRC in [1] amounted to 64 µg/mL.

Regarding `c1ccc(Nc2nc3nonc3nc2Nc2ccccc2)cc1`, in series [1], the MRC turned out to be 0.5 µg/mL. Moreover, the minimum inhibitory concentration (MIC) (as a rule, the lowest concentration that inhibits growth of the organism) in series [2] is above 64 µg/mL. The GI50 (commonly the concentration giving 50% growth inhibition) in [3] is 4.4 µg/mL (≈ 14.5 µM). Moreover, the selectivity ratio in [4] is 8.8.

On to `Oc1nc2nonc2nc1Nc1ccc(OC(F)(F)F)cc1`, for which the MRC in [1] came to 16 µg/mL.

Turning to `Oc1nc2nonc2nc1Nc1ccccc1F`, the MRC in series [1] was found to be 64 µg/mL.

`Cc1cccc(Nc2nc3nonc3nc2O)c1`: the MRC in series [1] came to 8 µg/mL.

As for `COc1ccccc1Nc1nc2nonc2nc1O`, the MRC in series [1] is 4 µg/mL. Besides, the MIC in [2] was above 64 µg/mL. Further, in series [3], the GI50 was above 100 µg/mL. Further, the selectivity ratio in [4] was above 25.

Consider `Oc1nc2nonc2nc1Nc1ccccc1OC(F)(F)F`, for which the MRC in series [1] was above 64 µg/mL.

`COc1ccccc1Nc1nc2nonc2nc1Nc1ccccc1OC`: the MRC in series [1] is above 64 µg/mL.

For the molecule `Cc1ccccc1Nc1nc2nonc2nc1O`, in series [1], the MRC amounted to 64 µg/mL.

In the case of `Oc1nc2nonc2nc1Nc1cccc(OC(F)(F)F)c1`, the MRC in series [1] amounted to 4 µg/mL. Moreover, the MIC in series [2] is above 64 µg/mL. In addition, the GI50 in series [3] was 24 µg/mL (≈ 76.6 µM). For the same molecule, in [4], the selectivity ratio was determined as 6.

For the molecule `Cc1cccc(Nc2nc3nonc3nc2Nc2cccc(OC(F)(F)F)c2)c1`, the MRC in [1] came to 0.5 µg/mL. Moreover, the MIC in [2] is above 64 µg/mL. Also, the GI50 in series [3] came to 12 µg/mL (≈ 29.8 µM). The selectivity ratio in series [4] worked out at 24.

For the molecule `Fc1ccc(Nc2nc3nonc3nc2Nc2ccc(F)cc2)cc1`, the MRC in [1] stood at 0.5 µg/mL. Further, the MIC in series [2] was above 64 µg/mL. Besides, in [3], the GI50 came out at 9.4 µg/mL (≈ 27.6 µM). Also, in [4], the selectivity ratio was 19.

For COLISTIN, the minimal inhibitory concentration (MIC) in series [2] amounted to 8 µg/mL; in [5], 8 µg/mL; in series [6], 8 µg/mL; in series [7] it was 32 µg/mL; in [8], 8 µg/mL; in series [9], 32 µg/mL. The results for the MIC in [10] and in [11] were 4 µg/mL and 8 µg/mL, respectively.

For the molecule `Clc1cccc(Nc2nc3nonc3nc2Nc2cccc(Cl)c2)c1`, the MIC was above 64 µg/mL in [2]; 1 µg/mL in series [12]; 1 µg/mL in series [13]; 1 µg/mL in series [14]; 1 µg/mL in series [15]; 1 µg/mL in series [16]. The MIC was 0.25 µg/mL in series [17], 1 µg/mL in series [18] and 2 µg/mL in series [19]. Further, the GI50 in series [3] is 11 µg/mL (≈ 29.5 µM). For the same molecule, in series [4], the selectivity ratio was 44.

As for `Clc1ccc(Nc2nc3nonc3nc2Nc2ccc(Cl)cc2)cc1`, the MRC in series [1] came out at 0.5 µg/mL. Further, the minimal inhibitory concentration (MIC) in [2] is above 64 µg/mL; in [12] it was 1 µg/mL; in series [13], 2 µg/mL; in series [14] it was 2 µg/mL; in [15], 1 µg/mL; in series [16], 1 µg/mL. Also, the MIC is 0.25 µg/mL in series [17], 1 µg/mL in series [18] and 2 µg/mL in series [19]. Further, in series [3], the GI50 amounted to 28 µg/mL (≈ 75 µM). The selectivity ratio in series [4] was found to be 56.

`Oc1nc2nonc2nc1Nc1cccc(F)c1`: in series [1], the MRC is 64 µg/mL.

In the case of `Cc1cccc(Nc2nc3nonc3nc2Nc2cccc(C)c2)c1`, the MRC in [1] was 0.5 µg/mL. Also, in [2], the MIC was above 64 µg/mL. Further, the 50% growth inhibitory concentration (GI50) in series [3] is 15 µg/mL (≈ 45.1 µM). Besides, the selectivity ratio in [4] stood at 30.

`COc1ccccc1Nc1nc2nonc2nc1Nc1cccc(OC(F)(F)F)c1`: the MRC in series [1] was above 64 µg/mL.

Regarding `FC(F)(F)Oc1ccc(Nc2nc3nonc3nc2Nc2ccc(OC(F)(F)F)cc2)cc1`, in [1], the MRC was determined as 0.25 µg/mL. Besides, the MIC in series [2] is above 64 µg/mL. The GI50 in series [3] worked out at 5.7 µg/mL (≈ 12.1 µM). Besides, the selectivity ratio in series [4] was determined as 23.

For the molecule `FC(F)(F)Oc1cccc(Nc2nc3nonc3nc2Nc2ccccc2)c1`, the MRC in [1] worked out at 1 µg/mL.

As for `Cc1ccccc1Nc1nc2nonc2nc1Nc1ccccc1C`, in series [1], the MRC was found to be 8 µg/mL.

Consider `Fc1cccc(Nc2nc3nonc3nc2Nc2cccc(F)c2)c1`, for which, in series [1], the MRC was found to be 0.5 µg/mL. In addition, the MIC in series [2] was above 64 µg/mL. The GI50 in [3] was determined as 20 µg/mL (≈ 58.8 µM). Also, the selectivity ratio in [4] is 40.

For the molecule `Clc1ccccc1Nc1nc2nonc2nc1Nc1ccccc1Cl`, the MRC in series [1] was 8 µg/mL.

For the molecule `Oc1nc2nonc2nc1Nc1ccccc1`, in series [1], the MRC was above 64 µg/mL.

As for `COc1cccc(Nc2nc3nonc3nc2O)c1`, the MRC in series [1] came out at 16 µg/mL.

Regarding `COc1ccc(Nc2nc3nonc3nc2Nc2ccc(OC)cc2)cc1`, the MRC in series [1] was above 64 µg/mL.

Regarding `Oc1nc2nonc2nc1Nc1ccc(Cl)cc1`, the MRC in series [1] turned out to be 32 µg/mL.

For `Oc1nc2nonc2nc1Nc1ccccc1Cl`, the MRC in [1] was determined as 16 µg/mL.

Take `Cc1ccc(Nc2nc3nonc3nc2Nc2ccc(C)cc2)cc1`: the MRC in series [1] is 0.5 µg/mL. In addition, the MIC in [2] was above 64 µg/mL. Further, the GI50 in series [3] came out at 11 µg/mL (≈ 33.1 µM). Also, the selectivity ratio in series [4] is 22.

As to `COc1ccc(Nc2nc3nonc3nc2O)cc1`, the MRC in series [1] was above 64 µg/mL.

On to `COc1cccc(Nc2nc3nonc3nc2Nc2cccc(OC)c2)c1`, for which the MRC in [1] stood at 2 µg/mL.

As for `FC(F)(F)Oc1cccc(Nc2nc3nonc3nc2Nc2cccc(OC(F)(F)F)c2)c1`, the MRC in [1] stood at 0.25 µg/mL. In series [2], the MIC is above 64 µg/mL. Besides, the GI50 in series [3] was 4.3 µg/mL (≈ 9.1 µM). The selectivity ratio in [4] was determined as 17.

Regarding `FC(F)(F)Oc1ccccc1Nc1nc2nonc2nc1Nc1ccccc1OC(F)(F)F`, in [1], the MRC is above 64 µg/mL.
